From paper PMC9916883, “Betaine- and L-Carnitine-Based Ionic Liquids as Solubilising and Stabilising Agents for the Formulation of Antimicrobial Eye Drops Containing Diacerein” (International Journal of Molecular Sciences, 2023)
In brackets after ≈: the same amount, converted by molar mass. Read-outs that look alike come from different tables or passages of the source.

How the values were obtained:
[1] = DIA elimination and degradation kinetics in tear fluid; format: in vivo, New Zealand albino rabbits; details: one drop (50 μL), 0.27 M IL, n = 10
Protocol: Male New Zealand albino rabbits weighing approximately 2.6–3 Kg, kept in standard housing conditions, were used for in vivo studies. The animals were treated as prescribed in the guidelines of the European Community Council Directive 2010/63. The animal protocol was approved by the Italian Ministry of University and Research (authorisation n. 192/2019-PR). The eye drops were prepared in CB (200 mOsm/kg). […] A suspension of plain DIA (0.34 M) in CB was used as a reference sample (230 mOsm/kg). The samples’ osmolality was checked using a Roebling osmometer (calibrated with NaCl 300 mOsm/kg H2O).
[…] CB was used as blank control. At predefined intervals (i.e., 2, 4, 6, 8, 10, 15, 20, 25, and 30 min from instillation), tear fluid samples were taken from the lower margin strip using 1 µL disposable glass capillaries (Microcaps, Drummond Scientific Co., USA), which were washed with 1 µL and diluted with 100 µL of CB. The diluted samples were analysed by HPLC. […] For each of the three formulations studied, elimination curves were constructed, each determined from a single eye of different rabbits.

P. aeruginosa ATCC 27853 [2] = assay: MIC determination (microdilution); format: cell-based, Pseudomonas aeruginosa
Protocol: A clinical isolate of S. aureus (W4) and the reference strain of P. aeruginosa ATCC 27853 were used in the study. For the preparation of stock cultures, bacterial strains were grown in Luria–Bertani broth (LB, Oxoid, Basingstoke, Hampshire, UK) until the late-log phase, subdivided into aliquots, and kept frozen at −80 °C until use. Identification and susceptibility testing of the S. aureus W4 strain were performed using MALDI-TOF (Bruker Daltonics, Bremen, Germany) and the BD Phoenix susceptibility testing system (BD, Milan, Italy), respectively.
The susceptibility of the bacterial strains to each of the tested compounds was assessed in terms of MIC values according to the standard microdilution method (Clinical and Laboratory Standards Institute–CLSI, 2018), with some modifications. Briefly, the bacteria were grown in LB broth until the exponential growth phase and then diluted in the same medium to reach a final density of 5 × 10^6 CFU/mL. A volume of 10 μL of the bacterial suspensions was added to 90 μL of LB in a 96-well plate in the absence (viability control) or presence of the test compound at different concentrations.

P. aeruginosa ATCC 27853 [3] = assay: Killing assay; format: cell-based, Pseudomonas aeruginosa; details: 3 h incubation in 5% TSB; DIA 0.34 M, ILs 0.27 M
Protocol: (§1) To this end, the bacterial strains were grown in TSB until the exponential phase, and approximately 5 × 10^4 CFU/mL-contained in 10 μL-was added to 5 μL of TSB, 35 μL of water, and 50 μL of one of the following solutions corresponding to the eye drop compositions tested in vivo: Bet6 or Carn6 with 0.27 M or 0.34 M DIA, plain DIA (0.34 M) solution, or plain Bet6/plain Carn6, both at 0.27 M. All solutions were prepared in CB. The samples were incubated at 37 °C with shaking for 3 h. A sample containing 0.6% DMSO (corresponding to the highest concentration of DMSO tested) was used as a control. Following incubation, the samples were diluted 10-fold in LB and plated on tryptone soy agar (TSA, Oxoid) to determine the number of CFU. Bactericidal activity was defined as a reduction of at least 3 Log10 in the number of viable bacteria as compared to the inoculum.

S. aureus W4 = assay: Killing assay; format: cell-based, Staphylococcus aureus; details: 3 h incubation in 5% TSB; DIA 0.34 M, ILs 0.27 M
Protocol: as §1

[4] = Phase solubility study (apparent solubility of DIA and Rhe with ILs or HP-β-CD); format: physicochemical; details: 25 °C, thermodynamic from solid, read-out: saturation solubility
Protocol: The increase in the apparent solubility of both DIA and Rhe in the presence of the ILs was evaluated. Briefly, aqueous solutions of the ILs were prepared in the range of 0–200 mg/mL, and an excess of either DIA or Rhe was added to each vial. The samples were then incubated for 30 min at 25°C, and the undissolved drug was removed by centrifugation at […] for 15 min (Hettich Mikro 120 centrifuge). […] The drug concentration was measured by UV–Vis analysis. The DIA phase solubility study was also compared to the phase solubility study of DIA in the presence of HP-β-CD as a reference solubility/stability-enhancing excipient. […] The complexation K was calculated through Higuchi and Connors’ method, as previously reported.
The size distribution and zeta potential values of the ILs’ aggregates in aqueous solutions were evaluated by using a Zetasizer Nano ZS (Malvern) at 25 °C. The samples were prepared by adding an excess of either DIA or Rhe (5 mg/mL) to the aqueous IL solutions, incubating them for 30 min at 25 °C, and finally removing the excess drugs by centrifugation. […] In contrast, for PB solutions, the solutions were prepared in water, and […] of 100 mM pH 7 phosphate buffer was added per 1 mL of aqueous solution, directly in the cuvette, before the dynamic light scattering (DLS) analysis started. The concentrations of the solubilised drug were determined by UV–Vis analysis.

[5] = Osmolality of eye drops (osmometer); format: physicochemical; details: eye drops in CB
Protocol: Male New Zealand albino rabbits weighing approximately 2.6-3 Kg, kept in standard housing conditions, were used for in vivo studies. The animals were treated as prescribed in the guidelines of the European Community Council Directive 2010/63. The animal protocol was approved by the Italian Ministry of University and Research (authorisation n. 192/2019-PR). The eye drops were prepared in CB (200 mOsm/kg). […] (588 mOsm/kg). A suspension of plain DIA (0.34 M) in CB was used as a reference sample (230 mOsm/kg). The samples' osmolality was checked using a Roebling osmometer (calibrated with NaCl 300 mOsm/kg H2O).

CC(=O)Oc1cccc2c1C(=O)c1c(OC(C)=O)cc(C(=O)O)cc1C2=O [DIA, diacerein]
MRT ([1]; male, New Zealand albino, topical, 50 µL (one drop) of 0.34 M DIA, DIA in rabbit tear fluid): 4.55 min
AUC (DIA concentration in tear fluid vs time) ([1]; rabbit tear fluid, 0.34 M DIA): 0.06 ± 0.002
MIC (P. aeruginosa ATCC 27853 [2]; Pseudomonas aeruginosa, ATCC27853, planktonic cells, 24 h, 37 °C): > 50 µg/mL
antibacterial effect (P. aeruginosa ATCC 27853 [2]; in words (discussion)): inactive
bactericidal effect (P. aeruginosa ATCC 27853 [3]): no evident bactericidal effect
bactericidal effect (S. aureus W4): no evident bactericidal effect
solubility at 30 min ([4]; Bet6 solutions in citrate buffer, pH 5, aqueous with cosolvent or surfactant or cyclodextrin, in Bet6 solutions): 1350 µg/mL (≈ 3670 µM)
solubility at 30 min ([4]; aqueous Carn6 solutions, aqueous with cosolvent or surfactant or cyclodextrin, in Carn6 solutions): 680 µg/mL (≈ 1850 µM)
osmolality [5]: 230 mOsm/kg
